Laboratory results as given in patent US20250288682A1, “DEVELOPMENT OF NANO-ENCAPSULATED FATTY-ACYL CONJUGATED COLCHICINE” (priority 2022, published 2025).
Read-outs that look alike come from different tables or passages of the source.

Key:
tubulin = conditions: cited from earlier work
[1] = for behenic acid conjugated colchicine in plasma: rats, 1 mg/kg
Description: The route of administration and the PK profile for liposomes colchicine were evaluated. The scaled-up formulation of liposomes colchicine, 15 mL, ghost formulation, non-liposomal behenic acid-conjugated colchicine and free colchicine were evaluated to determine the PK profile of liposomes colchicine, as a function of route of administration, intra-peritoneal injection and oral gavage. This preliminary in vivo study is designed to estimate PK parameters of liposomes colchicine and mode of administration of the liposomes. This study was performed using 10 rats divided into 4 groups as specified in FIG. 14. Rats received colchicine or liposomes-colchicine at 1 mg/kg by intra-peritoneal injection or oral gavage. Two and 24 hours after administration, blood was collected for a quantification of plasmatic colchicine and liposomes by liquid chromatography-mass spectrometry (LC-MS/MS). […] All plasma samples were analyzed for colchicine and colchicine-behenic acid conjugate.
LC/MS samples were prepared as per standard plasma extraction protocol.

HUVEC endothelial cells = conditions: 24 hour stimulation, 0.1 to 10000 nM
Description: Cell toxicity was tested on RAW264.7 macrophages and HUVEC endothelial cells. All cells were plated on 96-wells plate (2000 and 8000 cells per well, respectively) and exposed to colchicine or controls three days after (FIGS. 11A and 11B). Cells were exposed to commercialized colchicine (#9754, Sigma-Aldrich), behenic-acid colchicine or liposomal nanoparticles-colchicine (liposomes-colchicine, generated by the nanoSTAR Institute) as well as their respective controls (free media, ethanol/DMSO, ghost liposomes) from 0.1 to 10000 nM. After 24 hours of stimulation, media was removed and replaced with MTT solution (M2128, Sigma-Aldrich) at 0.375 mg/mL for 4 hours at 37° C. Viable cells produced dark blue formazan products. These products were dissolved in an isopropanol/Triton X-100, 10%/HCl solution, and read at 575 nm for absorbance density values to determine the cell viability. The percentage of the viable cells was calculated using the following formula: (%)=[100×(colchicine compound absorbance)/(own control absorbance)].

[2] = cited from earlier work
[3] = tested on: microtubules, HUVEC endothelial cells; conditions: 100 nM, 24 hours
Description: (§1) The efficiency of colchicine to bind microtubules and alter their polymerization was evaluated on HUVEC endothelial cells (FIG. 12) and J774 macrophages (FIG. 13). Cells were plated, respectively, at 5000 and 10000 cells/cm2 three days before colchicine stimulation. […] After 24 hours of stimulation, cells were fixed with paraformaldehyde 4% for 10 minutes. Blocking was performed with 10% normal goat serum with 0.2% Triton X-100. The immunocytometry staining used an α/β-tubulin antibody (#2148, Cell Signaling, 1/100, overnight, +4° C.) followed with a goat anti-rabbit antibody Alexa 555 (#A21429, Invitrogen, 1/200, 1 hour, room temperature). DAPI was used for nuclear staining. Pictures at 20× magnification were taken using AxioVision software SE64 4.9.1 (Zeiss).

[4] = tested on: microtubules, J774 macrophages; conditions: 100 nM, 24 hours
Description: as §1

[5] = rats treated with behenic acid conjugated colchicine

SMILES: COc1cc2c(c(OC)c1OC)-c1ccc(OC)c(=O)cc1[C@@H](NC(=O)CO)CC2 [colchifoline, N-(2-hydroxyacetyl) colchicine]
- tubulin binding compared with colchicine (tubulin): stronger

SMILES: CCCCCCCCCCCCCCCCCCCCCC(=O)OCC(=O)N[C@H]1CCc2cc(OC)c(OC)c(OC)c2-c2ccc(OC)c(=O)cc21 [AI-3-25]
- colchifoline in plasma [1, 5]: found
- free colchicine as a metabolite in plasma [1, 5]: not found
- behenic acid conjugated colchicine in plasma ([1]; IP, 2 hours): presence
- behenic acid conjugated colchicine in plasma ([1]; oral gavage): diminished levels

SMILES: COc1cc2c(c(OC)c1OC)-c1ccc(OC)c(=O)cc1[C@@H](NC(C)=O)CC2 [Colchicine, colchicine]
- cell viability (MTT) (HUVEC endothelial cells): decreased cell viability
- log P [2]: about 1.5
- Biopharmaceutical Classification System class ([2]; high solubility and low permeability): class III
- microtubule polymerization, cell division and cell shape [3]: significantly dysregulated microtubule polymerization, cell division and cell shape
- microtubule polymerization, cell division and cell shape [4]: significantly dysregulated microtubule polymerization, cell division and cell shape
